These results are taken from article PMC9303458 (Chemmedchem, 2022).

Read-outs that look alike come from different tables or passages of the source.

The nature of data set [1]: Metabolic stability in porcine blood plasma. As to conditions: percent of parent remaining after 30 min at 37 °C; mean ± SD, n=3. Format: in vitro ADME.
The subject of data set [2] is Caco‐2 cell monolayer. The data set is described as follows: Caco‐2 cell permeability.
Data set [3] in a line: Thermodynamic aqueous solubility. As to conditions: PBS pH 7.4, shaken 20 h, 20 °C; mean ± SD. The class given is physicochemical.
Data set [4] can be described thus: Metabolic stability in porcine liver S9 fraction. Particulars: percent of parent remaining after 30 min at 37 °C; mean ± SD, n=3. The class given is in vitro ADME.
For data set [5] the following is noted: rats, peroral application; cited from earlier work.
For data set [6] the following is noted: dogs, peroral application; cited from earlier work.
The nature of data set [7]: Chemical stability in aqueous solution. Particulars: percent of parent remaining after 60 min at 37 °C; mean ± SD, n=3. Format: physicochemical.
Data set [8] relates to Caco‐2 cell monolayer. As to conditions: Caco‐2, comparable conditions; cited from earlier work.

For the molecule `O=C(OC(C(F)(F)F)C(F)(F)F)N1CCN(Cc2ccc(C(F)(F)F)cc2N2CCCC2)CC1` [ABX‐1431, reference compound], the “Porcine blood plasma Stability” value in data set [1] was determined as 95±2%. In the data set with Caco‐2 cell monolayer [2] (Caco‐2, 10 μM apical, 2 h, 37 °C, mean ± SD, n=3, n.d.: no permeation detectable), the “Permeability coefficient pH 7.4” value is given as “could not be detected”. Moreover, the “Aqueous solubility pH 7.4” value in data set [3] is “very low solubility”. Moreover, in data set [4], the “Porcine liver S9 fraction Stability” value was 81±3%. In addition, the Bioavailability result in data set [5] and in data set [6] was “more than 60%” in each case. In data set [7], the “PBS‐buffer pH 7.4 Stability” value turned out to be 90±5%.

Take `COc1ccc2c(c1)c(CC(=O)O)c(C)n2C(=O)c1ccc(Cl)cc1` [indomethacin, reference compound]: the “Recovery of test compound at the end of the Caco‐2 experiment” value in the data set on Caco‐2 cell monolayer [2] (sum of apical and basolateral compartments after 2 h) is given as “quantitative”. For the same molecule, the “Permeability coefficient, literature value” in the data set with Caco‐2 cell monolayer [8] was 204 nm/s.
